Test results as given in US20210085585A1, “A PERSONAL CARE COMPOSITION” (Conopco, Inc., d/b/a UNILEVER, priority 2017, published 2021).

System: co-cultures of HaCaT keratinocytes and neonatal primary human epidermal melanocytes
Assay: Melanin content assay (cellular melanin content in keratinocyte-melanocyte co-cultures)
Assay type: cell-based
Details: 72 h treatment, average % reduction in cellular melanin content; for inhibition at 10000 µM: single active at 10 mM
Procedure: Neonatal primary human epidermal melanocytes were sourced from Life Technologies. Melanocytes were maintained in Medium 254 supplemented with Human Melanocyte Growth Supplement-2 (MGM).
HaCaT keratinocytes were maintained in DMEM medium containing 10% heat inactivated foetal bovine serum. All media were also supplemented with 10 U/mL penicillin G and 0.1 mg/mL streptomycin sulphate. Both cell types were maintained at 37° C. in a humidified incubator with 5% CO2 atmosphere.
Maintenance and sub-culturing of cells were carried out as per the manufacturer's instructions. For setup of co-cultures, HaCaT keratinocytes and melanocytes, each 40,000 cells were mixed (1:1 ratio) in 1 mL of a 1:1 mix of MGM:GM (KGM: EpiLife Medium supplemented with Human Keratinocyte Growth Supplement) and seeded as such per well, in 12 well Nunc plates.
Actives were prepared in media and test concentrations were added to cells along with relevant controls 24 h post seeding. After 72 h of active treatment, cell viability (using calcein method) and measurement of cellular melanin content was determined as described below.
After calcein fluorescence readings were obtained, cells were drained and fresh 0.15 mL of 1N NaOH (in 10% DMSO) per well was added. Cells were lysed by resuspension and incubated (60° C. for 1 h). Then, 0.1 mL of this lysate was transferred to a fresh 384-well plate and OD was measured at 405 nm in a TECAN M1000 plate reader (estimate of relative melanin content).

Row | Compound | inhibition at 10000 µM [%] | inhibition at 100 µM (single active at 100 uM) [%] | inhibition at 1000 µM (single active at 1 mM) [%]
1 | NC(=O)c1cccnc1 [3-pyridinecarboxamide] | 0 | – | –
2 | O=C(O)CCN1CCCCC1 [1PP, 1-piperidinepropionic acid] | 0 | 1 | -5
